Earlier results as cited in patent US9046534B2, “Methods and systems for identifying and treating anti-progestin sensitive tumors” (INVIVIS PHARMACEUTICALS INC., priority 2011, dated 2015).

Columns and labels:
[1] = tested on: progesterone responsive genes; conditions: compared with progestins and other anti-progestins, which activate progesterone responsive genes
breast cancer = conditions: first line hormone treatment, small breast cancer study
advanced breast cancer = conditions: 101 poor prognosis patients with advanced breast cancer, progressed despite prior hormonal therapy (tamoxifen)
PR = target: T1, PR (Homo sapiens, UniProt P06401); conditions: in vitro systems; aggregates produced by an artificial ligand bound to the PR
T1 sequence (P06401 1-933): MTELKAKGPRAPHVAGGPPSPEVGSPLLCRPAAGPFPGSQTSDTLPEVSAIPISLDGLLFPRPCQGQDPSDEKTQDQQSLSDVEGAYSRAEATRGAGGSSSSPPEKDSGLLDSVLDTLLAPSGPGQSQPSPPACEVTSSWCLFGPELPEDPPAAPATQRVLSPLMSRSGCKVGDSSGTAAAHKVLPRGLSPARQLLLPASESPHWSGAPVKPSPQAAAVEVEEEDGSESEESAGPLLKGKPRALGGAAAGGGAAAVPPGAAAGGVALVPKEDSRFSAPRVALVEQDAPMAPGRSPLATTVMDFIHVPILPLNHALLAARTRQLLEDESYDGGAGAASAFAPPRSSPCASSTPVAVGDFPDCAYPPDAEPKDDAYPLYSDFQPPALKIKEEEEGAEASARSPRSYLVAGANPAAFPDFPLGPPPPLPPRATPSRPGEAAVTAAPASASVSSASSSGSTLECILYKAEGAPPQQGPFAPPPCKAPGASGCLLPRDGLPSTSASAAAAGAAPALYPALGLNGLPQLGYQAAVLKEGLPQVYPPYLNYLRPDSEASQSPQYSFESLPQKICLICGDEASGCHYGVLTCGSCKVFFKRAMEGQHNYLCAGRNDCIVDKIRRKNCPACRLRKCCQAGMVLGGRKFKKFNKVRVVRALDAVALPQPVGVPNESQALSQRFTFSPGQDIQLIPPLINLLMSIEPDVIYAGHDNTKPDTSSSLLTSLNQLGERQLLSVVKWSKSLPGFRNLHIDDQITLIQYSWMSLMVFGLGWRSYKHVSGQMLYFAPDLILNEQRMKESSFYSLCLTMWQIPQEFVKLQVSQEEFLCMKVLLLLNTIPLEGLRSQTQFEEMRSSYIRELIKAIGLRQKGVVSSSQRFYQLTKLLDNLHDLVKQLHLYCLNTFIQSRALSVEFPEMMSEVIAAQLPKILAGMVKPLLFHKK

[2] = human subjects; an increase is an undesirable side-effect for breast cancer therapy

For `CN(C)c1ccc([C@H]2C[C@]3(C)[C@@H](CC[C@]3(O)CCCO)C3CCC4=CC(=O)CCC4=C32)cc1` (stereo in doubt) [Onapristone, (8S,11R,13R,14S,17S)-11-[4-(dimethylamino)phenyl]-17-hydroxy-17-(3-hydroxypropyl)-13-methyl-1,2,6,7,8,11,12,14,15,16-decahydrocyclopenta[a]phenanthren-3-one], the “activation of progesterone responsive genes (number of genes activated)” value [1] is listed as 3 genes, the objective response rate (breast cancer) is listed as 56% and the response rate (advanced breast cancer) is listed as 10%. For the same compound, the “effect on PR nuclear aggregates” value (PR) was “reverse the PR nuclear aggregates” and the “effect on estrogen secretion” value [2] was “does not increase estrogen secretion”.
